From paper PMC7558399, “In Vitro Selective Growth-Inhibitory Activities of Phytochemicals, Synthetic Phytochemical Analogs, and Antibiotics against Diarrheagenic/Probiotic Bacteria and Cancer/Normal Intestinal Cells” (Pharmaceuticals, 2020)
In brackets after ≈: the same amount, converted by molar mass. Read-outs that look alike come from different tables or passages of the source.

How the values were obtained:
Assay type in all cases: cell-based
[1] = system: E. coli 0175:H7 (NCTC 12900); test: microbe, parasite or virus in culture; conditions: Escherichia coli, NCTC12900
[2] = system: Bacteroides fragilis (ATCC 25285); test: Broth microdilution MIC, B. fragilis
[3] = system: Clostridium difficile (DSMZ 12056); test: microbe, parasite or virus in culture; conditions: Clostridioides difficile, DSMZ12056
[4] = system: HT29 (ATCC HTB 38) intestinal cancer cells; test: MTT cytotoxicity assay, HT29; conditions: Homo sapiens; for IC50: read-out: IC50 ± SD; for IC80: read-out: IC80 ± SD (80% inhibitory concentration of proliferation)
[5] = system: Lactobacillus rhamnosus (CCM 7091); test: Broth microdilution MIC, L. rhamnosus; conditions: Lacticaseibacillus rhamnosus, CCM7091
[6] = system: FHs 74 Int (ATCC CCL 241) intestinal normal cells; test: MTT cytotoxicity assay, FHs 74 Int; conditions: 72 h; for IC50 / IC80: FHs74Int; for IC50: read-out: IC50 ± SD; for IC80: read-out: IC80 ± SD (80% inhibitory concentration of proliferation)
[7] = system: Bifidobacterium adolescentis (DSMZ 20087); test: Broth microdilution MIC, B. adolescentis
[8] = system: Bifidobacterium breve (ATCC 15700); test: Broth microdilution MIC, B. breve
[9] = system: Clostridium perfringens (DSMZ 11778); test: microbe, parasite or virus in culture; conditions: DSMZ11778
[10] = system: intestinal cancer cells (HT29 and Caco-2); test: MTT cytotoxicity assay, mean for intestinal cancer cells; conditions: for IC50: read-out: x¯ -CC ± SD: mean IC50 for intestinal cancer cells; for IC80: read-out: x¯ -CC ± SD: mean IC80 for intestinal cancer cells
[11] = system: Vibrio parahaemolyticus (ATCC 17802); test: Broth microdilution MIC, V. parahaemolyticus
[12] = system: Escherichia coli (ATCC 25922); test: Broth microdilution MIC, E. coli
[13] = system: Enterococcus faecalis (ATCC 29212); test: Broth microdilution MIC, E. faecalis
[14] = system: Shigella flexneri (ATCC 12022); test: microbe, parasite or virus in culture; conditions: ATCC12022
[15] = system: Salmonella enterica ssp. enterica serovar Enteritidis (ATCC 13076); test: Broth microdilution MIC, Salmonella Enteritidis
[16] = system: Listeria monocytogenes (ATCC 7644); test: Broth microdilution MIC, L. monocytogenes
[17] = system: Bifidobacterium bifidum (ATCC 29521); test: Broth microdilution MIC, B. bifidum
[18] = system: probiotic bacteria (9 strains); test: Broth microdilution MIC, probiotic bacteria as a group (mean or range over strains)
[19] = system: Yersinia enterocolitica (ATCC 9610); test: Broth microdilution MIC, Y. enterocolitica
[20] = system: S. enterica ssp. enterica serovar Typhimurium (ATCC 14028); test: Broth microdilution MIC, Salmonella Typhimurium
[21] = system: Lactobacillus casei (DSMZ 20011); test: Broth microdilution MIC, L. casei; conditions: Lacticaseibacillus casei, DSMZ20011
[22] = system: Lactobacillus reuteri (CCM 3625); test: Broth microdilution MIC, L. reuteri; conditions: Limosilactobacillus reuteri, CCM3625
[23] = system: Bifidobacterium longum ssp. longum (DSMZ 20219); test: Broth microdilution MIC, B. longum ssp. longum; conditions: DSMZ20219
[24] = system: Bacillus cereus (ATCC 14579); test: Broth microdilution MIC, B. cereus
[25] = system: Bifidobacterium animalis spp. lactis (DSMZ 10140); test: Broth microdilution MIC, B. animalis spp. lactis; conditions: DSMZ10140
[26] = system: diarrheagenic bacteria (12 strains); test: microbe, parasite or virus in culture
[27] = system: Caco-2 (ATCC HTB 37) intestinal cancer cells; test: MTT cytotoxicity assay, Caco-2; conditions: Homo sapiens; for IC50: read-out: IC50 ± SD; for IC80: read-out: IC80 ± SD (80% inhibitory concentration of proliferation)
[28] = read-out: x¯ -PB ± SD: mean MIC for probiotic bacteria
[29] = FHs 74 Int (intestinal normal cells), MTT
[30] = ATCC15700, growth inhibited by ≥80%, read-out: MIC
[31] = ATCC17802, growth inhibited by ≥80%, read-out: MIC
[32] = Bifidobacterium longum ssp. longum, growth inhibited by ≥80%, read-out: MIC
[33] = mean of 12 strains, >512 replaced with 1024, read-out: x¯ -DB ± SD: mean MIC for diarrheagenic bacteria

Oc1cccc2cccnc12 [8HQ, 8-hydroxyquinoline]
MIC [1]: 256 µg/mL (≈ 1760 µM) | MIC ([2]; ATCC25285): 32 µg/mL (≈ 220 µM) | MIC [3]: 128 µg/mL (≈ 882 µM) | IC50 ([4]; HT-29, 72 h): 1.3 ± 0.3 µg/mL (≈ 8.96 µM) | IC80 ([4]; HT-29, 72 h): 4.8 ± 2.8 µg/mL (≈ 33.1 µM) | MIC [5]: > 512 µg/mL | IC50 [6]: 10.7 ± 0.2 µg/mL (≈ 73.7 µM) | IC80 [6]: 20.3 ± 2.4 µg/mL (≈ 140 µM) | MIC ([7]; DSMZ20087): 512 µg/mL (≈ 3530 µM) | MIC ([8]; ATCC15700): > 512 µg/mL | MIC [9]: 128 µg/mL (≈ 882 µM) | IC50 [10]: 0.8 ± 0.5 µg/mL (≈ 5.51 µM) | IC80 [10]: 2.9 ± 2 µg/mL (≈ 20 µM) | MIC ([11]; ATCC17802): 128 µg/mL (≈ 882 µM) | MIC ([12]; ATCC25922): 128 µg/mL (≈ 882 µM) | MIC ([13]; ATCC29212): 4 µg/mL (≈ 27.6 µM) | MIC [14]: 128 µg/mL (≈ 882 µM) | MIC [15]: 256 µg/mL (≈ 1760 µM) | MIC ([16]; ATCC7644): 1 µg/mL (≈ 6.89 µM) | MIC ([17]; ATCC29521): 512 µg/mL (≈ 3530 µM) | MIC [18, 28]: 743 ± 343 µg/mL (≈ 5120 µM) | MIC ([19]; ATCC9610): 512 µg/mL (≈ 3530 µM) | MIC [20]: 512 µg/mL (≈ 3530 µM) | MIC [21]: > 512 µg/mL | MIC [22]: > 512 µg/mL | MIC ([23]; Bifidobacterium longum): 512 µg/mL (≈ 3530 µM) | MIC ([24]; ATCC14579): 512 µg/mL (≈ 3530 µM) | MIC ([25]; Bifidobacterium animalis): > 512 µg/mL | MIC ([26]; read-out: x¯ -DB ± SD: mean MIC for diarrheagenic bacteria): 224 ± 181 µg/mL (≈ 1550 µM) | IC50 ([27]; Caco-2, 72 h): 0.3 ± 0.1 µg/mL (≈ 2.07 µM) | IC80 ([27]; Caco-2, 72 h): 0.9 ± 0.1 µg/mL (≈ 6.2 µM)

O=C(N[C@H](CO)[C@H](O)c1ccc([N+](=O)[O-])cc1)C(Cl)Cl [CA, chloramphenicol]
MIC [1]: 8 µg/mL (≈ 24.8 µM) | MIC ([2]; ATCC25285, growth inhibited by ≥80%, read-out: MIC): 4 µg/mL (≈ 12.4 µM) | MIC ([3]; Clostridium difficile, […], read-out: MIC): 4 µg/mL (≈ 12.4 µM) | IC50 ([4]; HT-29, HT29, MTT, 72 h): 271.1 ± 1 µg/mL (≈ 839 µM) | IC80 ([4]; HT-29, HT29, MTT, 72 h): > 512 µg/mL | MIC ([5]; Lactobacillus rhamnosus, growth inhibited by ≥80%, read-out: MIC): 8 µg/mL (≈ 24.8 µM) | IC80 ± SD (80% inhibitory concentration of proliferation) [6, 29]: - (Not active (MIC/IC50/80 > 512 μg/mL, the value 1024 μg/mL was used for average calculation)) | IC50 [6, 29]: 30.7 ± 5.6 µg/mL (≈ 95 µM) | IC80 [6, 29]: > 512 µg/mL | MIC ([7]; DSMZ20087, growth inhibited by ≥80%, read-out: MIC): 4 µg/mL (≈ 12.4 µM) | MIC [8, 30]: 4 µg/mL (≈ 12.4 µM) | MIC [9]: 4 µg/mL (≈ 12.4 µM) | IC50 ([10]; mean of HT29 and Caco-2, >512 replaced with 1024): 355 ± 84 µg/mL (≈ 1100 µM) | IC80 [10]: > 512 µg/mL | MIC [11, 31]: 2 µg/mL (≈ 6.19 µM) | MIC ([12]; ATCC25922, growth inhibited by ≥80%, read-out: MIC): 4 µg/mL (≈ 12.4 µM) | MIC ([13]; ATCC29212, growth inhibited by ≥80%, read-out: MIC): 128 µg/mL (≈ 396 µM) | MIC [14]: 4 µg/mL (≈ 12.4 µM) | MIC ([15]; Salmonella Enteritidis, growth inhibited by ≥80%, read-out: MIC): 4 µg/mL (≈ 12.4 µM) | MIC ([16]; ATCC7644, growth inhibited by ≥80%, read-out: MIC): 8 µg/mL (≈ 24.8 µM) | MIC ([17]; ATCC29521, growth inhibited by ≥80%, read-out: MIC): 4 µg/mL (≈ 12.4 µM) | MIC ([18]; bifidobacteria, range over strains, read-out: MICs): 2 to 4 µg/mL (≈ 6.19 to 12.4 µM) | MIC ([18]; mean of 9 strains, >512 replaced with 1024, read-out: x¯ -PB ± SD: mean MIC for probiotic bacteria): 6.2 ± 4 µg/mL (≈ 19.2 µM) | MIC ([19]; ATCC9610, growth inhibited by ≥80%, read-out: MIC): 16 µg/mL (≈ 49.5 µM) | MIC ([20]; Salmonella Typhimurium, growth inhibited by ≥80%, read-out: MIC): 8 µg/mL (≈ 24.8 µM) | MIC ([21]; Lactobacillus casei, growth inhibited by ≥80%, read-out: MIC): 16 µg/mL (≈ 49.5 µM) | MIC ([22]; Lactobacillus reuteri, growth inhibited by ≥80%, read-out: MIC): 8 µg/mL (≈ 24.8 µM) | MIC [23, 32]: 4 µg/mL (≈ 12.4 µM) | MIC ([24]; ATCC14579, growth inhibited by ≥80%, median/mode, read-out: MIC): 8 µg/mL (≈ 24.8 µM) | MIC ([25]; Bifidobacterium animalis spp. lactis, growth inhibited by ≥80%, read-out: MIC): 4 µg/mL (≈ 12.4 µM) | MIC ([26]; at least half of the diarrheagenic bacteria, read-out: MICs): 1 to 4 µg/mL (≈ 3.09 to 12.4 µM) | MIC [26, 33]: 16.5 ± 34 µg/mL (≈ 51.1 µM) | IC50 ([27]; Caco-2, MTT, 72 h): 439.3 ± 4 µg/mL (≈ 1360 µM) | IC80 ([27]; Caco-2, MTT, 72 h): > 512 µg/mL

O=C(OC[C@H]1O[C@@H](OC(=O)c2cc(O)c(O)c(OC(=O)c3cc(O)c(O)c(O)c3)c2)[C@H](OC(=O)c2cc(O)c(O)c(OC(=O)c3cc(O)c(O)c(O)c3)c2)[C@@H](OC(=O)c2cc(O)c(O)c(OC(=O)c3cc(O)c(O)c(O)c3)c2)[C@@H]1OC(=O)c1cc(O)c(O)c(OC(=O)c2cc(O)c(O)c(O)c2)c1)c1cc(O)c(O)c(OC(=O)c2cc(O)c(O)c(O)c2)c1 [TA, tannic acid]
MIC [1]: 512 µg/mL (≈ 301 µM) | MIC ([2]; ATCC25285): > 512 µg/mL | MIC [3]: > 512 µg/mL | MIC [5]: > 512 µg/mL | MIC ([7]; DSMZ20087): > 512 µg/mL | MIC [8, 30]: 256 µg/mL (≈ 150 µM) | MIC [9]: 512 µg/mL (≈ 301 µM) | MIC [11, 31]: 128 µg/mL (≈ 75.2 µM) | MIC ([12]; ATCC25922): > 512 µg/mL | MIC ([13]; ATCC29212): > 512 µg/mL | MIC [14]: > 512 µg/mL | MIC [15]: > 512 µg/mL | MIC ([16]; ATCC7644): > 512 µg/mL | MIC ([17]; ATCC29521): > 512 µg/mL | MIC [18, 28]: 725 ± 352 µg/mL (≈ 426 µM) | MIC ([19]; ATCC9610, […], read-out: MIC): 512 µg/mL (≈ 301 µM) | MIC [20]: > 512 µg/mL | MIC ([21]; Lactobacillus casei, […], read-out: MIC): 512 µg/mL (≈ 301 µM) | MIC [22]: 512 µg/mL (≈ 301 µM) | MIC [23, 32]: 128 µg/mL (≈ 75.2 µM) | MIC ([24]; ATCC14579, […], median/mode, read-out: MIC): 512 µg/mL (≈ 301 µM) | MIC ([25]; Bifidobacterium animalis): > 512 µg/mL | MIC [26, 33]: 779 ± 307 µg/mL (≈ 458 µM)
